Results on one molecule are retold here after patent US11919856B2, “Compounds” (UCL BUSINESS LTD, priority 2018, dated 2024).

Entries after “also recorded” stand apart in the source; their conditions may differ.

The target of data set [1] is T1, Z-alpha-1-antitrypsin (Z-A1AT) (Homo sapiens, UniProt P01009, E366K/V237A).
T1 construct: Z-alpha-1-antitrypsin was purified from human plasma; from tissue; host or cells: human plasma of ZZ homozygous donors
Put plainly: Inhibition of Z-alpha-1-antitrypsin polymerisation TR-FRET assay. The format is biochemical. Particulars: mean, 5 nM Z-A1AT, 72 hours at 37° C. The text has this:
The potencies of the compounds of the invention for inhibition of Z-alpha-1-antitrypsin (Z-A1AT) polymerisation can be determined by a time-resolved fluorescence energy transfer (TR-FRET) assay performed on purified Z-A1AT as described herein. […] Mean activity data for the assay described below for compounds 1-4:
Inhibition of Z-Alpha-1-Antitrypsin Polymerisation Assay Protocol
Z-alpha-1-antitrypsin was purified from human plasma of donors homozygous for the Z-A1AT form. The purification was performed according to a published protocol (Lomas et al. Biochemistry 1993; 32:500-508) involving ammonium sulphate precipitation, thiol exchange fractionation, and anion exchange fractionation.
Purified Z-A1AT was diluted to 5 nM in PBS buffer with 0.01% Tween-20 and mixed with different concentrations of inhibitor compounds dissolved in DMSO, in 384-well assay plates. Following incubation for 72 hours at 37° C., the amount of Z-A1AT polymer was detected using a time-resolved fluorescence resonance energy transfer (TR-FRET) assay format, by adding an antibody detection mix to the assay plates. The detection mix contained an A1AT-polymer specific monoclonal antibody (Miranda et al. Hepatology 2010; 52: 1078-1088), Terbium-labelled anti-mouse antibody, a polyclonal rabbit anti-A1AT antibody, and an Alexa488-labelled anti-rabbit antibody. TR-FRET data were normalised to controls (DMSO vehicle control giving 0% inhibition, saturating concentrations of an active compound giving 100% inhibition), and IC50 values were derived by fitting 4-parameter logistic curves to the normalised data.
An antibody-based time-resolved fluorescence resonance energy transfer (TR-FRET) assay was used to monitor the polymerisation of 5 nM Z α1-antitrypsin following incubation with varying concentrations of compounds at 37° C. for 72 hours. This assay used the 2C1 monoclonal antibody that is specific to pathological polymers of α1-antitrypsin (Miranda et al. Hepatology 2010; 52: 1078-1088), a polyclonal antibody that binds to all forms of α1-antitrypsin, an anti-mouse IgG fluorescence donor (Eu-W1024) and an anti-rabbit IgG acceptor (APC).

In data set [2] the target is T2, M α1-antitrypsin (Homo sapiens, UniProt P01009).
T2 construct: Alpha1-antitrypsin was purified from the plasma of ZZ and MM α1-antitrypsin homozygotes; from tissue; host or cells: plasma of MM homozygotes
Nature of the data set: Compound association experiments (intrinsic tryptophan fluorescence), M α1-antitrypsin. The data set is classed as binding. As to the method: The intrinsic tryptophan fluorescence of α1-antitrypsin is dominated by Trp194 in the breach region (Tew et al. J Mol Biol. 2001 Nov. 9; 313(5):1161-9) and can be used to monitor the progress of compound binding. Plasma M and Z α1-antitrypsin were diluted to 0.2 mg/ml in 100 μM PBS, and Compound 1 (or an equivalent volume of DMSO) added to a concentration of 10 μM. Fluorescence (λex=280 nm, λem=330 nm) was monitored for at least 2 hours, and the half-time of change was calculated.
Kinetic data in stopped flow experiments were fitted to exponential decay curves with offset and linear slope, to account for a constant drift in the background, resulting in observed pseudo-first-order rate constants k(obs): y=A0·e^−k(obs)t+slope·t+offset where t=time and Ao=amplitude at t=0. The second-order on-rate was then obtained as the slope when plotting k(obs) values versus compound concentration. Off-rates were calculated from the on-rates and the KD values determined from the binding assays. Cell Biology

The target of data set [3] is T2, M α1-antitrypsin. Nature of the data set: Stoichiometry of inhibition against chymotrypsin, M α1-antitrypsin. The data set is classed as biochemical. Particulars: M α1-antitrypsin pre-incubated with compound. How it is done: (§1) Mutations that interfere with the opening of […] or that perturb its interaction with the N-terminal portion of the reactive centre loop alter the ability of serpins to inhibit target proteases. The stoichiometry of inhibition (SI) was determined for M and Z α1-antitrypsin in discontinuous experiments against a model target protease, chymotrypsin. The pre-incubation of both variants with Compound 1 led to a >98% loss of protease inhibitory activity. […] To investigate whether this activity was consistent with action as a chemical chaperone, M and Z α1-antitrypsin were unfolded in vitro into 6 M guanidine hydrochloride, and rapidly refolded by snap dilution into denaturant-free buffer in the presence or absence of Compound 1.

The next data set concerns the target Z α1-antitrypsin (Homo sapiens, UniProt P01009, E366K/V237A). Put plainly: Stoichiometry of inhibition against chymotrypsin, Z α1-antitrypsin. The format is biochemical. Particulars: Z α1-antitrypsin pre-incubated with compound. As to the method:
as §1

Data set [4] can be described thus: In vitro clearance in cryopreserved hepatocytes, dog. The format is in vitro ADME.
Data set [5] can be described thus: Blood exposure after single PO administration in male CD-1 mouse. The data set is classed as in vivo. The text has this:
Compound 1 had in vitro ADME properties suitable for in vivo evaluation of the pre-clinical and clinical pharmacology of the molecule.

In a further data set the test system is Z α1-antitrypsin polymer. Nature of the data set: Liver polymer levels in Z α1-antitrypsin transgenic mice (2C1 staining). The format is in vivo, human. Particulars: 100 mg/kg three times a day for 20 days. How it is done: Since Compound 1 blocks polymer formation in cells the effect of dosing Compound 1 on liver polymer levels was explored. It has recently been shown that Z α1-antitrypsin polymers formed in CHO-TET-ON-Z-A1AT and ZZ-iPSC-hepatocytes are cleared from cells with a t½ of between 8 and 48 hours depending on whether they partition to the soluble or insoluble fractions. […] Compound 1 was therefore dosed at 100 mg/kg three times a day as above for 20 days. On days 15 and 21 of dosing, changes of monomeric Z α1-antitrypsin plasma samples were determined as above, and increases of 7- to 8-fold over the pre-dosing baseline levels were observed, similar to the effect in animals dosed for 3 or 6 days, consistent with sustained target engagement through the dosing period. Liver polymer levels were investigated by staining with 2C1 anti-polymer monoclonal antibody and were scored blinded either by a pathologist or by quantification using an algorithm to measure all areas of positive staining. There was no difference observed in total liver polymer load via manual or quantitative scoring.
To investigate whether there is a subpopulation of polymer in the liver that was responding to compound over the time frame of the experiment, areas of staining were divided into low, medium and high intensity regions and scored separately for response to compound. […]

T2 sequence (P01009 25-418): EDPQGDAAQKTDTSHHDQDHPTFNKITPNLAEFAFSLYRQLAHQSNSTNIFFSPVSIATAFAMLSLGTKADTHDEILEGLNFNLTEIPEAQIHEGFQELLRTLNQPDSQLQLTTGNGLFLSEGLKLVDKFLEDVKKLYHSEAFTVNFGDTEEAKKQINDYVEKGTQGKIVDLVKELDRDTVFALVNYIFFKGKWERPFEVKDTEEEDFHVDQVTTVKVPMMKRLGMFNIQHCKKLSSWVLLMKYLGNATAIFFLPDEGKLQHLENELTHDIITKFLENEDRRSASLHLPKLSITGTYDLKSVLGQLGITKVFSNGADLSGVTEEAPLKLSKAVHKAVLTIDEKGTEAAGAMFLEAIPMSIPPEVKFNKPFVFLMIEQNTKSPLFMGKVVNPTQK
Sequence of Z α1-antitrypsin (P01009 25-418 V237A/E366K): as the sequence (P01009 25-418) above, with V213A, E342K counted along it
T1 sequence (P01009 25-418 V237A/E366K): as the sequence (P01009 25-418) above, with V213A, E342K counted along it

Regarding `CCC[C@@H](NC(=O)c1cccc2c1CC(=O)N2)[C@@H](O)c1cccc(F)c1C` [Compound 1, N-[(1S,2R)-1-(3-fluoro-2-methylphenyl)-1-hydroxypentan-2-yl]-2-oxo-2,3-dihydro-1H-indole-4-carboxamide], the IC50 in data set [1] was 5.01 nM. For the same molecule, the koff on M α1-antitrypsin [2] (calculated from on-rate and KD, read-out: first-order dissociation rate) is 1.6e-05 s⁻¹. Further, on M α1-antitrypsin [2] (read-out: second-order association rate), the kon came to 210 M⁻¹ s⁻¹. Also, the “loss of protease inhibitory activity” value on M α1-antitrypsin [3] and on Z α1-antitrypsin was more than 98% in each case. For the same molecule, in data set [4], the “in vitro clearance in cryopreserved hepatocytes” value is listed as less than 0.65 mL/min/g. Further, the values for the DNAUCinf in data set [5] (single PO 10 mg/kg), in data set [5] (single PO 30 mg/kg) and in data set [5] (single PO 100 mg/kg) were 202±101, 294±47 and 403±246, respectively. For the same molecule, the “mean dose-normalised Cmax” value is listed as 58±112 in data set [5] (single PO 10 mg/kg), 113±27 in data set [5] (single PO 30 mg/kg) and 113±27 in data set [5] (single PO 100 mg/kg). Moreover, the “liver polymer staining in low, medium and high intensity regions” value in the data set on Z α1-antitrypsin polymer is listed as “No effect”. Moreover, the “total liver polymer load” value with Z α1-antitrypsin polymer (manual or quantitative scoring) is “no difference; also recorded: no reduction”.
